Source: publication PMC10243163, “A frog‐derived antimicrobial peptide as a potential anti‐biofilm agent in combating Staphylococcus aureus skin infection” (Journal of Cellular and Molecular Medicine, 2023)
Values after ≈ are worked out from the molar mass of the structure shown. Positions of bridges follow the written chain, without caps; N, C: chain ends. Residues, ends and D or L forms follow the SMILES beside them.

How the values were obtained:
[1] = test system: P. aeruginosa ATCC 9027; assay type: cell-based, Pseudomonas aeruginosa
Experimental: (§1) Antimicrobial assays were conducted using standard broth micro‐dilutions, as mentioned previously.[11] Gram‐positive bacteria S. aureus (ATCC 6538), Methicillin‐resistant S. aureus (MRSA; NCTC 12493), […] (NCTC 12697), Gram‐negative bacteria Escherichia coli (ATCC 8739), Klebsiella pneumoniae (ATCC 43816), Pseudomonas aeruginosa (ATCC 9027), Acinetobacter baumannii (ATCC BAA 747), and yeast, Candida albicans (ATCC 10231) were used in the test. The experiments were conducted in three independent runs.

[2] = test system: E. coli ATCC 8739; assay type: cell-based, Escherichia coli
Experimental: as §1

[3] = test system: K. pneumoniae ATCC 43816; assay type: cell-based, Klebsiella pneumoniae; conditions: ATCC 43816, 24 h
Experimental: (§2) Peptide solutions were first mixed with bacterial cultures (5 × 10^5 CFU/mL) and incubated at 37°C for 24 h. The planktonic bacterial cells were gently removed by washing with PBS the next day, and methanol was utilised to fix the biofilm. Crystal violet (0.1% v/v), PBS and acetic acid (30%, v/v) were subsequently used to stain biofilm, remove remaining stains and re‐dissolve stains, respectively. The absorbance was determined at 595 nm. The experiments were conducted in three independent runs.

[4] = test system: Gram‐positive and Gram‐negative test bacteria; assay type: cell-based; conditions: geometric mean of MICs against the three Gram‐negative strains
[5] = test system: E. faecalis NCTC 12697; assay type: cell-based; conditions: NCTC 12697, 24 h
Experimental: (§3) The bacterial culture (5 × 10^5 CFU/mL) was cultured in a sterile 96‐well plate for 24 h to generate mature biofilms. The planktonic bacteria were removed by washing three times with sterile PBS buffer. Then, fresh broth with different peptide concentrations was added to each well and further incubated for another 24 h. Then, the plate was stained with crystal violet. The stain was solubilised in 30% acetic acid, and the absorbance was measured at 595 nm. The experiments were conducted in three independent runs.

[6] = test system: P. aeruginosa ATCC 9027; assay type: cell-based, Pseudomonas aeruginosa; conditions: ATCC 9027, 24 h
Experimental: as §3

[7] = test system: E. coli ATCC 8739; assay type: cell-based, Escherichia coli; conditions: ATCC 8739, 24 h
Experimental: as §3

[8] = test system: E. coli ATCC 8739; assay type: cell-based, Escherichia coli; conditions: ATCC 8739, 24 h; remark: listed apart in the source
Experimental: as §2

[9] = test system: E. faecalis NCTC 12697; assay type: cell-based
[10] = test system: E. faecalis NCTC 12697; assay type: cell-based; conditions: NCTC 12697, 24 h; remark: listed apart in the source
Experimental: as §2

[11] = test system: horse erythrocytes; experiment: Haemolytic activity; assay type: cell-based; conditions: 128 μM peptide; horse erythrocytes 2% v/v, 37°C, 2 h; 0.1% Triton X‐100 positive control; absorbance 570 nm; three independent runs
Experimental: The haemolytic activity of peptides was conducted using horse erythrocytes (2%, v/v). Peptide solutions were mixed with washed horse erythrocyte suspension at 37°C for 2 h. Triton X‐100 (0.1%) was used as a positive control. The mixture was then centrifuged at 930 g for 5 min. The absorbance of the supernatants was detected at 570 nm. The haemolysis rate was calculated using the formula: Haemolysis%=Sample group−negative group/positive group−negative group×100%.
This experiment was performed in three independent runs.

[12] = test system: K. pneumoniae ATCC 43816; assay type: cell-based, Klebsiella pneumoniae; conditions: ATCC 43816, 24 h; remark: listed apart in the source
Experimental: as §3

[13] = test system: K. pneumoniae ATCC 43816; assay type: cell-based, Klebsiella pneumoniae
Experimental: as §1

[14] = test system: MRSA NCTC 12493; assay type: cell-based, Methicillin‐resistant S. aureus
Experimental: as §1

[15] = test system: P. aeruginosa ATCC 9027; assay type: cell-based, Pseudomonas aeruginosa; conditions: ATCC 9027, 24 h; remark: listed apart in the source
Experimental: as §2

[16] = test system: C. albicans ATCC 10231; assay type: cell-based, Candida albicans
Experimental: as §1

[17] = test system: S. aureus ATCC 6538; assay type: cell-based, Staphylococcus aureus; conditions: ATCC 6538, 24 h
Experimental: as §2

[18] = test system: S. aureus ATCC 6538; assay type: cell-based, Staphylococcus aureus
Experimental: as §1

[19] = test system: Gram‐positive and Gram‐negative test bacteria; assay type: cell-based
Experimental: as §1

[20] = test system: S. aureus ATCC 6538; assay type: cell-based, Staphylococcus aureus; conditions: ATCC 6538, 24 h; remark: listed apart in the source
Experimental: as §3

[21] = test system: MRSA NCTC 12493; assay type: cell-based, Methicillin‐resistant S. aureus; conditions: NCTC 12493, 24 h
Experimental: as §2

[22] = test system: MRSA NCTC 12493; assay type: cell-based, Methicillin‐resistant S. aureus; conditions: NCTC 12493, 24 h; remark: listed apart in the source
Experimental: as §3

In the case of `CC[C@H](C)[C@@H]1NC(=O)[C@H](CCCCN)NC(=O)[C@@H](NC(=O)[C@H](CC(C)C)NC(=O)[C@@H](NC(=O)[C@H](CCCCN)NC(=O)[C@@H]2CCCN2C(=O)[C@H](CC(C)C)NC(=O)[C@H](Cc2ccccc2)NC(=O)[C@H](CC(N)=O)NC(=O)[C@H](C)NC(=O)[C@H](C)NC(=O)[C@H](CC(C)C)NC(=O)CNC(=O)[C@H](C)NC(=O)[C@@H](NC(=O)[C@H](CC(C)C)NC(=O)[C@@H]2CCCN2C(=O)[C@@H](N)Cc2ccccc2)[C@@H](C)CC)[C@@H](C)CC)CSSC[C@@H](C(=O)O)NC(=O)[C@H](CCCCN)NC(=O)[C@H](CCCNC(=N)N)NC(=O)[C@H](C)NC1=O` [OG9] (H-FPLIAGLAANFLPKILCKIARKC-OH; disulfide 17-23), the MBC [1] is reported as 16 µM (≈ 40 µg/mL), the MIC [1] is reported as 16 µM (≈ 40 µg/mL) and the MBC [2] is reported as 4 µM (≈ 10 µg/mL). The MIC [2] was 4 µM (≈ 10 µg/mL), the MBIC [3] was >128/>128 μM and the “GM MIC, G−” value [4] was 16 µM. The MBEC [5] was > 128 µM, the MBEC [6] was >128/>128 μM and the MBEC [7] was > 128 µM. The MBIC [8] was 32 µM, the MBC [9] was 16 µM (≈ 40 µg/mL) and the MIC [9] was 16 µM (≈ 40 µg/mL). The MBIC [10] was 32 µM, the Haemolysis [11] was “around 85%” and the MBEC [12] was >128/>128 μM. It also gave an MBC [13] of 64 µM (≈ 160 µg/mL), an MIC [13] of 64 µM (≈ 160 µg/mL) and an MBC [14] of 32 µM (≈ 80 µg/mL). The MIC [14] was 16 µM (≈ 40 µg/mL), the MBIC [15] was >128/>128 μM and the MBC [16] was > 128 µM. The MIC [16] was > 128 µM, the MBIC [17] was 16 µM and the MBC [18] was 8 µM (≈ 20 µg/mL). The MIC [18] was 4 µM (≈ 10 µg/mL), the “GM MIC, total bacteria” value ([19]; geometric mean of MICs against all test bacteria) was 12.7 µM and the “GM MIC, G+” value ([19]; geometric mean of MICs against the three Gram‐positive strains) was 10.1 µM. For the same compound, the MBEC [20] was > 128 µM, the MBIC [21] was 16 µM and the MBEC [22] was > 128 µM.
